# Marks after values point to notes of the source that are not given here.
# What was measured:
# [1] = assay type: in vivo, beagle dogs; settings: dog
# Description: The local toxicology of Form 1 of the compound of Formula (I) in dogs was studied. The compound of Formula (I) (Form 1) was administered via single or multiple (9 times) intra-articular (IA) injections as a suspension composition in beagle dogs to evaluate local toxicity.
# After IA injection, the right stifle joint was histologically evaluated for inflammation, cartilage health, bone density, etc. Toxicology was evaluated immediately after a single or multiple (3 or 9 once-monthly) IA injections.
# [2] = test system: moderate-to-severe symptomatic knee OA subjects; experiment: Phase 1 clinical study: safety and adverse events; assay type: in vivo, human; settings: for AE(s) Reported - All / AE(s) Reported - Target knee, Arthralgia / AE(s) Reported - Target knee, Injection site bruising / AE(s) Reported - Target knee, Injection site pain / AE(s) Reported - Target knee, Joint injury / AE(s) Reported - Target knee, Joint stiffiiess / AE(s) Reported - Target knee, Joint swelling / AE(s) Reported - Target knee, Meniscus injury / DLT(s) Reported / SAE(s) Reported: single IA injection
# Description: A Phase 1 study was conducted to evaluate the safety and tolerability of the compound of Formula (I) (Form 1) administered by intra-articular injection into a target knee joint of moderate-to-severe symptomatic OA subjects.
# (§1) The study was a first-in-human, multicenter, 24-week, placebo-controlled, single-dose, dose-escalation safety study of a Wnt pathway inhibitor in subjects suffering from moderate to severe symptomatic knee OA. The sample size was 20 subjects (randomized 4:1, 16 active: 4 placebo) per dosing cohort. Inclusion criteria included: Age, 50-75 years; Western Ontario and McMaster Universities Arthritis Index (WOMAC) Total score, 36-72 (out of 96); Kellgren-Lawrence grade, 2 or 3; and a willingness to omit pain medication for 24 hours prior to pain assessments. Exclusion criteria included: BMI>40; and treatment with IA steroids within 2 months or HA derivatives within 6 months prior to injection. A full list of the inclusion and exclusion criteria for this study can be found on clinicaltrials.gov (NCT02095548).
# (§2) The dosing sequence included suspension compositions of either 0.03 mg, 0.07 mg, or 0.23 mg of the compound of Formula (I) (Form 1) per 2 mL injection in a vehicle containing 0.5% carboxymethylcellulose sodium and 0.05% polysorbate 80 in pH 7.4 phosphate buffered saline. The placebo contained only the diluent of 0.5% carboxymethylcellulose sodium and 0.05% polysorbate 80 in pH 7.4 phosphate buffered saline. The subjects were given a single, intra-articular injection in the target knee on Treatment Day 1 and participated in a follow-up period of 24 weeks.
# (§3) Safety, pharmacokinetics (PK), biomarker, and efficacy data were collected at baseline and during the 24-week follow-up period. Safety data included adverse events (AEs), concomitant medications, clinical laboratory sampling, medical history, vital signs, ECGs, hip bone density (DXA) analysis, qCT of the target knee, and evaluation of bone edema via MM. For PK data, samples were collected 0, 4, and 24 hours post dose, and at Weeks 4 and 12. Biomarker data included data for procollagen type 1 N-propeptide (P1NP), beta C-terminal telopeptide of type 1 collagen (βCTX), and cartilage oligomeric matrix protein (COMP). Efficacy data included measurements of WOMAC Total score, WOMAC Function and Pain subscores, pain VAS, Physician Global Assessment of Disease Activity, MM, and radiographs. Efficacy assessments were used to determine the percentage of OMERACT-OARSI “strict” responders. Exploratory analyses of efficacy outcomes were conducted using a baseline-adjusted repeated measures analysis of covariance (ANCOVA) in the Intention-to-Treat (ITT) population. The sponsor was unblinded after Week 12 for each cohort; site investigators remained blinded. All AEs reported in this study were […]. Investigator opinion regarding whether AEs were related to the compound of Formula (I) was also collected for informational purposes.
# [3] = test system: moderate-to-severe symptomatic knee OA subjects; experiment: Phase 1 clinical study: biomarkers (COMP, βCTX, P1NP); assay type: in vivo, human
# Excerpt: as §1, §2, §3
structure (smiles),measurement,setting,value
CC(C)CC(=O)Nc1cncc(-c2ccc3[nH]nc(-c4nc5c(-c6cccc(F)c6)cncc5[nH]4)c3c2)c1 [compound of Formula (I)],finding at the injection site of high-dose animals (synovium and extra-articular tissues),[1]; in vivo,local inflammatory response
same,no observed adverse effect level (NOAEL),[1]; in vivo,1.75 mg/knee
same,histopathological effects in the bone and cartilage,"[1]; single IA injection 0.07, 1.75 and 35 mg",no adverse histopathological effects
same,Subjects Who Reported AE(s) [N(%)],[2]; 0.03 mg cohort,9 (53%) N(%)
same,Subjects Who Reported No AE(s) [N(%)],[2]; 0.03 mg cohort,8 (47%) N(%)
same,AE(s) Reported - All,[2]; 0.03 mg cohort,15
same,"AE(s) Reported - Target knee, Arthralgia",[2]; 0.03 mg cohort,1
same,"AE(s) Reported - Target knee, Injection site bruising",[2]; 0.03 mg cohort,0
same,"AE(s) Reported - Target knee, Injection site pain",[2]; 0.03 mg cohort,0
same,"AE(s) Reported - Target knee, Joint injury",[2]; 0.03 mg cohort,1
same,"AE(s) Reported - Target knee, Joint stiffiiess",[2]; 0.03 mg cohort,0
same,"AE(s) Reported - Target knee, Joint swelling",[2]; 0.03 mg cohort,0
same,"AE(s) Reported - Target knee, Meniscus injury",[2]; 0.03 mg cohort,0
same,DLT(s) Reported,[2]; 0.03 mg cohort,0
same,SAE(s) Reported,[2]; 0.03 mg cohort,0
same,Subjects Who Reported AE(s) [N(%)],[2]; 0.07 mg cohort,6 (37%) N(%)
same,Subjects Who Reported No AE(s) [N(%)],[2]; 0.07 mg cohort,10 (63%) N(%)
same,AE(s) Reported - All,[2]; 0.07 mg cohort,11
same,"AE(s) Reported - Target knee, Arthralgia",[2]; 0.07 mg cohort,1
same,"AE(s) Reported - Target knee, Injection site bruising",[2]; 0.07 mg cohort,0
same,"AE(s) Reported - Target knee, Injection site pain",[2]; 0.07 mg cohort,2
same,"AE(s) Reported - Target knee, Joint injury",[2]; 0.07 mg cohort,0
same,"AE(s) Reported - Target knee, Joint stiffiiess",[2]; 0.07 mg cohort,0
same,"AE(s) Reported - Target knee, Joint swelling",[2]; 0.07 mg cohort,1
same,"AE(s) Reported - Target knee, Meniscus injury",[2]; 0.07 mg cohort,0
same,DLT(s) Reported,"[2]; 0.07 mg cohort, increased target knee pain and paroxysmal tachycardia",2*
same,SAE(s) Reported,"[2]; 0.07 mg cohort, paroxysmal tachycardia",1*
same,Subjects Who Reported AE(s) [N(%)],[2]; 0.23 mg cohort,7 (44%) N(%)
same,Subjects Who Reported No AE(s) [N(%)],[2]; 0.23 mg cohort,9 (56%) N(%)
same,AE(s) Reported - All,[2]; 0.23 mg cohort,25
same,"AE(s) Reported - Target knee, Arthralgia",[2]; 0.23 mg cohort,1
same,"AE(s) Reported - Target knee, Injection site bruising",[2]; 0.23 mg cohort,1
same,"AE(s) Reported - Target knee, Injection site pain",[2]; 0.23 mg cohort,1
same,"AE(s) Reported - Target knee, Joint injury",[2]; 0.23 mg cohort,0
same,"AE(s) Reported - Target knee, Joint stiffiiess",[2]; 0.23 mg cohort,1
same,"AE(s) Reported - Target knee, Joint swelling",[2]; 0.23 mg cohort,1
same,"AE(s) Reported - Target knee, Meniscus injury",[2]; 0.23 mg cohort,1
same,DLT(s) Reported,[2]; 0.23 mg cohort,0
same,SAE(s) Reported,[2]; 0.23 mg cohort,0
same,AEs considered related to study medication by the reporting investigator,[2]; 16 of 77 AEs,22%
same,exposed subjects who reported no AEs,[2]; 27 of 49 exposed subjects,55%
same,overall safety and tolerability,"[2]; single IA injection of suspension formulated from Form 1, interim data","safe, well-tolerated"
same,change in COMP,[3]; 0.03 mg cohort,no significant changes
same,reduction in cartilage oligomeric matrix protein (COMP),"[3]; 0.07 mg cohort, Week 12, P=0.001",130 ng/mL
same,change in COMP,[3]; 0.23 mg cohort,no significant changes
same,change in βCTX or P1NP,[3]; any treatment group,no significant changes
